Data published in publication PMC3445516 (PLoS ONE, 2012).
Like-named read-outs stand apart in the source and are kept apart here. Values belong to the compound of their own block, whether it stands above or below them.

What was measured:
Experiment in all cases: Ambit kinase profiling, competition binding
[1] = molecular target: T1, TAOK3 (Homo sapiens, UniProt Q9H2K8)
T1 construct: purchased Ambit Biosciences (KINOMEscan)
T1 sequence (Q9H2K8 1-898): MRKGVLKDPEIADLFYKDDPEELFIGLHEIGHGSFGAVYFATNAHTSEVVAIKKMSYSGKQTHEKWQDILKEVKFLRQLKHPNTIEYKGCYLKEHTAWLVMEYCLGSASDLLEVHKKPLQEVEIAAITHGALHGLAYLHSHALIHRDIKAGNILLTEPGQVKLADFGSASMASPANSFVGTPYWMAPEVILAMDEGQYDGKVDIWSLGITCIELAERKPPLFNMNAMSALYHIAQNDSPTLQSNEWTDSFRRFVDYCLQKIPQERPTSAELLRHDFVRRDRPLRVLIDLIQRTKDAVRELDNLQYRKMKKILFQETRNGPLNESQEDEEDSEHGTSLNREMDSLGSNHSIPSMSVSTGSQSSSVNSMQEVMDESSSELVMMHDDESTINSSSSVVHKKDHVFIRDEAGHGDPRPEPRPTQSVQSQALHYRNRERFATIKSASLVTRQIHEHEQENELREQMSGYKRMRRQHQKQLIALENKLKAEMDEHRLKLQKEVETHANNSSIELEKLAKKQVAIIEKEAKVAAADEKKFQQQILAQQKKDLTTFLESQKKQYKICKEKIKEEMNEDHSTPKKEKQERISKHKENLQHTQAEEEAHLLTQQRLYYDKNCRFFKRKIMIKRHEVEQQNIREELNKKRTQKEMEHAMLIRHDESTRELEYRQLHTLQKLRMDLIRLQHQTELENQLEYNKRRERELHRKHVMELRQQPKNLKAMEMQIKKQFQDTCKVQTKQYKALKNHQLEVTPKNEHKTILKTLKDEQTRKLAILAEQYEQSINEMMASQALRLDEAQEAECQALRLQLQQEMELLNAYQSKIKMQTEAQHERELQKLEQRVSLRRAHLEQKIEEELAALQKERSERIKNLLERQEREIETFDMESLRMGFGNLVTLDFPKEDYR
Description: (§1) Also included in the kinase profile are four isoforms of PKC (δ, ε, η, θ) and eight isoforms of CAMKs (CAMKIα, δ, γ; CAMKIIα, β, δ, γ; CAMK4).
(§2) The global kinase profiling experiment was performed by Ambit Biosciences.

[2] = molecular target: T2, CDK7 (Homo sapiens, UniProt P50613)
T2 construct: purchased Ambit Biosciences (KINOMEscan)
T2 sequence (P50613 whole entry): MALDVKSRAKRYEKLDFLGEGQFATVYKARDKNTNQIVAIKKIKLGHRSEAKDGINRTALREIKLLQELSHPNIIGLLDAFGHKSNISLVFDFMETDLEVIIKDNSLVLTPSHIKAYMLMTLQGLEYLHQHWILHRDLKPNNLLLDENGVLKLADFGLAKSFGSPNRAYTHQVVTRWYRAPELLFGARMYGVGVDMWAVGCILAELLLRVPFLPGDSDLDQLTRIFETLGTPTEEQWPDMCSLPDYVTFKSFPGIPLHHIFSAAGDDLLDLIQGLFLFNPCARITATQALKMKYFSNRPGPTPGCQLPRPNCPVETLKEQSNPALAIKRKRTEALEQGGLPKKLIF
Description: as §1, §2

[3] = molecular target: T3, ERBB4 (Homo sapiens, UniProt Q15303)
T3 construct: purchased Ambit Biosciences (KINOMEscan)
T3 sequence (Q15303 26-1308): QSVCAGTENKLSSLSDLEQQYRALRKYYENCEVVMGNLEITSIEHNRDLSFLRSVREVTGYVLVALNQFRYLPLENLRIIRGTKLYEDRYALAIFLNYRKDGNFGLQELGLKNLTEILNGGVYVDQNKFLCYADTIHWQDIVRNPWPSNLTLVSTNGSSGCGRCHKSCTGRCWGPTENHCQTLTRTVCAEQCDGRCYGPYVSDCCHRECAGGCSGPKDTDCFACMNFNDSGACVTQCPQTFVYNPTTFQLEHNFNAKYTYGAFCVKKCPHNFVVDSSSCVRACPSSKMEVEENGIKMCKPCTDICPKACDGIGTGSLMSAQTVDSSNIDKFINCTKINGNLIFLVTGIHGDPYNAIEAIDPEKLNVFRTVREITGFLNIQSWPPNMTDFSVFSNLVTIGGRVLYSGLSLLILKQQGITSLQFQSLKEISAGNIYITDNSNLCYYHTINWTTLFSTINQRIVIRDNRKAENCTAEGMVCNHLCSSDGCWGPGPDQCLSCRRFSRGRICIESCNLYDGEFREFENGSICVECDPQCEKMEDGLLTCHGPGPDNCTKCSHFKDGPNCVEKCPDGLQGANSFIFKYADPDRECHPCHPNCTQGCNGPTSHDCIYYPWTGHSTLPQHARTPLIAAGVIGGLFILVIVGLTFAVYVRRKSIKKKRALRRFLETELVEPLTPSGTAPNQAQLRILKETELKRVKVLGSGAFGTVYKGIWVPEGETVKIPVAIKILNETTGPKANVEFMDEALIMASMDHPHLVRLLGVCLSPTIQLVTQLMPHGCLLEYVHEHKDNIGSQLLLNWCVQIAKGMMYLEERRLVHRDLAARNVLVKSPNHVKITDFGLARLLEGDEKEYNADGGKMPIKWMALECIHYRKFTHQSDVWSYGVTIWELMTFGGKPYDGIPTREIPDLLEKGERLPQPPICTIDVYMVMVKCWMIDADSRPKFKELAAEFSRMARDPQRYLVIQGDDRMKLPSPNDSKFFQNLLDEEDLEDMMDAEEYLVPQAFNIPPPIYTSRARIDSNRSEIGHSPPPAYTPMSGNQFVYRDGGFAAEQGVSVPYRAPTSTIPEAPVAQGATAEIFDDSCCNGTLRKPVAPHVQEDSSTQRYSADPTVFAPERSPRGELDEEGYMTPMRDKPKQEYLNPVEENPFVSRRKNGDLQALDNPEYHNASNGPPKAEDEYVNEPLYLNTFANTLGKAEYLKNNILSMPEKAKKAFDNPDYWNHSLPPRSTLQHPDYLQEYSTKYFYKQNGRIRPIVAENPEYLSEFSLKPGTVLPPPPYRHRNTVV
Description: as §1, §2

[4] = molecular target: T4, RET(M918T) (Homo sapiens, UniProt P07949, M918T)
T4 construct: purchased Ambit Biosciences (KINOMEscan)
T4 sequence (P07949 29-1114 M918T): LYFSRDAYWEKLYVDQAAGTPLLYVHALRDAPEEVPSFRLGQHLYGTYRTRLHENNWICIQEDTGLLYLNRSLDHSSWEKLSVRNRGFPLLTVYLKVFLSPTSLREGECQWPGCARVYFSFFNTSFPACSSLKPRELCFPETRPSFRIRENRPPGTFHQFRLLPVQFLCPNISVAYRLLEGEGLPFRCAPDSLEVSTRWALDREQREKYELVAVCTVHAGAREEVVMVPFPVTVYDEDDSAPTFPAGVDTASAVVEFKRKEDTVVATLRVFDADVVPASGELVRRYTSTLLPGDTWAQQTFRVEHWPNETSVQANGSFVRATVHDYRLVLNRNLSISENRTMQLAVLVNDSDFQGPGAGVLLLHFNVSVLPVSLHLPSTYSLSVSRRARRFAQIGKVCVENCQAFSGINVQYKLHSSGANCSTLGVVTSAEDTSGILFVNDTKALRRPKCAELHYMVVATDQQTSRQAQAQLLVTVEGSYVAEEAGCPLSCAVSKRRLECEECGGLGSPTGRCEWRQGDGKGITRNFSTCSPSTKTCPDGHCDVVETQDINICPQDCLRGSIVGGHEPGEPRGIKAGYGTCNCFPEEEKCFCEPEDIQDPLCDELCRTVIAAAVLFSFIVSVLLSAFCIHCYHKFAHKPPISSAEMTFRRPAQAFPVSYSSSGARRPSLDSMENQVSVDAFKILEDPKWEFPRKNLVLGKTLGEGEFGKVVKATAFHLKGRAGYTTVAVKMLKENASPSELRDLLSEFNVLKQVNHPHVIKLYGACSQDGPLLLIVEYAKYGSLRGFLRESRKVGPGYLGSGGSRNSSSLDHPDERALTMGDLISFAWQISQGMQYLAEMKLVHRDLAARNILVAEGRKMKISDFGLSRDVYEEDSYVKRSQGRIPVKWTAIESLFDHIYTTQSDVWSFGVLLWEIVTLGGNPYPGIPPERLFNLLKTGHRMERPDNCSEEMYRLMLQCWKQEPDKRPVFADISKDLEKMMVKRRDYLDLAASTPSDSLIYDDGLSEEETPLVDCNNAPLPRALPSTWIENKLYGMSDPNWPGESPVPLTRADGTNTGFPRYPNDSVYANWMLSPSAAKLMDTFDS
Description: as §1, §2

[5] = molecular target: T5, EPHA3 (Homo sapiens, UniProt P29320)
T5 construct: purchased Ambit Biosciences (KINOMEscan)
T5 sequence (P29320 21-983): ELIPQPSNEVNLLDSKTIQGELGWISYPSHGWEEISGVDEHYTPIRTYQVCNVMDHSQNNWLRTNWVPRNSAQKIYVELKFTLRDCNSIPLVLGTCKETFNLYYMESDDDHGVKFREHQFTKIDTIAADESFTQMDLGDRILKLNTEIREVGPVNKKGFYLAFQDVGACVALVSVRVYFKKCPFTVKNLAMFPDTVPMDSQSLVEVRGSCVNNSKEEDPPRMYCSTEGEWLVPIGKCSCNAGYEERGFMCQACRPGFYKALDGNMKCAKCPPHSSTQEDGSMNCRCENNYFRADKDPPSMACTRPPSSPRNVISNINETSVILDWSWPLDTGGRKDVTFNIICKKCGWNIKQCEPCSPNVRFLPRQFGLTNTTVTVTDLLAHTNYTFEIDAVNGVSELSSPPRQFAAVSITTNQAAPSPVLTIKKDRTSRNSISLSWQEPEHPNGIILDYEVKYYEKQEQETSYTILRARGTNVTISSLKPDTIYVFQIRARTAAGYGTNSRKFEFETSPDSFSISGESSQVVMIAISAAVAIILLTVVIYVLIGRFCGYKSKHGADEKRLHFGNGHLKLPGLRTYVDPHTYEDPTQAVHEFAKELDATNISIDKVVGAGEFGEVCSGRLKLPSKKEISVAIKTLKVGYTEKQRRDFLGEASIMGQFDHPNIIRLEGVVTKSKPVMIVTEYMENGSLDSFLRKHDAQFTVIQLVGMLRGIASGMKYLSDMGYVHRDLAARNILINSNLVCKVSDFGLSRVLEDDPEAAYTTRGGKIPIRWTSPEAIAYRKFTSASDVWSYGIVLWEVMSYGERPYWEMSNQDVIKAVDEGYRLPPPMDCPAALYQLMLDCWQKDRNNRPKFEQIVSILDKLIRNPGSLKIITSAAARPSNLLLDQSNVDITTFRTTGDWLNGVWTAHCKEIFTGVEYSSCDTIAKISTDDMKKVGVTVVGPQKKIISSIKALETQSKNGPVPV
Description: as §1, §2

inhibition at 10 µM ([1]; TAOK3, compound concentration 10 uM, read-out: Percent Competition): 80%
inhibition at 10 µM ([2]; CDK7, compound concentration 10 uM, read-out: Percent Competition): 100%
inhibition at 10 µM ([3]; ERBB4, compound concentration 10 uM, read-out: Percent Competition): 80%
inhibition at 10 µM ([4]; RET(M918T), compound concentration 10 uM, read-out: Percent Competition): 68%
inhibition at 10 µM ([5]; EPHA3, compound concentration 10 uM, read-out: Percent Competition): 85%
SMILES: Fc1ccc(-c2c(-c3ccncc3)[nH]c3nccnc23)cc1 [RO1155697-000-005]

inhibition at 10 µM ([1]; TAOK3, 10 µM, read-out: % Competition): 80%
inhibition at 10 µM ([2]; CDK7, 10 µM, read-out: % Competition): 100%
inhibition at 10 µM ([3]; ERBB4, 10 µM, read-out: % Competition): 80%
inhibition at 10 µM ([4]; RET(M918T), 10 µM, read-out: % Competition): 68%
inhibition at 10 µM ([5]; EPHA3, 10 µM, read-out: % Competition): 85%
SMILES: Fc1ccc(-c2c(-c3ccncc3)[nH]c3nccnc23)cc1 [Compound 122]

SMILES: CC(O)CNc1cc(-c2[nH]c3cccnc3c2-c2ccc(F)cc2)ccn1 (stereo not drawn) [Compound 140]
inhibition at 10 µM ([1]; read-out: % Competition): < 50%
inhibition at 10 µM ([2]; read-out: % Competition): < 50%
inhibition at 10 µM ([3]; read-out: % Competition): < 50%
inhibition at 10 µM ([4]; read-out: % Competition): < 50%
inhibition at 10 µM ([5]; read-out: % Competition): < 50%
